Experimental data: article PMC9221018, “Sulfonamide-Derived Dithiocarbamate Gold(I) Complexes Induce the Apoptosis of Colon Cancer Cells by the Activation of Caspase 3 and Redox Imbalance” (Biomedicines, 2022)

Legend:
[1] = test system: p53; assay: Determination of p53 protein by flow cytometry; format: cell-based, human; conditions: Caco-2; complex 1 1.14 µM 48 h, complex 8 7.22 µM 72 h
Procedure: (§1) Caco-2 cells were seeded in a 75 cm^2 flask at a density of 1 × 10^4 cells/cm^2; 24 h later, they were exposed to the drug panel for 48 or 72 h. Then, the cells were collected and processed as previously described. Finally, 50 µL of every sample was incubated with 5 µL anti-active caspase-3 (BD Pharmigen, San Diego, CA, USA, Clone C92-605) and 5 µL p53 antibody (Miltenyi, Auburn, CA, USA, Clone REA609). The fluorescence was measured by flow cytometry using a Beckman Coulter Gallios (Brea, CA, USA) equipped with a blue solid diode laser (488 nm) and a red solid diode laser (635 nm). For the caspase-3 determination, the excitation wavelength was set at 488 nm and the emission was set at 525 nm; for the p53 analysis, the excitation was set at 635 nm and the emission was set at 660 nm.

[2] = test system: differentiated Caco-2 cells; assay: MTT cytotoxicity assay in differentiated Caco-2 cells (healthy cell model); format: cell-based, human; conditions: for decrease of cell viability: complexes at their IC50 (1 1.14 μM, 3 1.7 μM, 8 7.22 μM, 9 8.56 μM), 72 h; for IC50: treatment for 72 h
Procedure: (§2) The human Caco-2 cell line (TC7 clone) was kindly provided by Dr. Edith Brot-Laroche (Université Pierre et Marie Curie-Paris 6, UMR S 872, Les Cordeliers, France). Human epithelial fibroblast cells (NHDF-Ad, Lonza®®, Porriño, Spain) were kindly provided by Dr. Gracia Mendoza (Aragon Health Research Institute, IIS Aragón, Spain). Caco-2 cells (passages 40–70) and fibroblasts (passages 10–30) were maintained in a humidified atmosphere of 5% CO2 at 37 °C and grown in medium following the method used by Quero et al.. The Caco-2 cells were sub-cultured in 25 cm^2 plastic flasks at a density of 1.2 × 10^4 cells/cm^2, while the fibroblasts were sub-cultured on 75 cm^2 plastic flasks at a density of 1 × 10^4 cells/cm^2. The culture medium was replaced every 2 days.
(§3) The gold complexes were diluted in dimethyl sulfoxide (DMSO) as a 10 mM stock solution, and then diluted in cell culture medium at the desired concentrations.
(§4) For the cytotoxicity screening assays, Caco-2 cells were seeded in 96-well plates at a density of 4 × 10^3 cells/well. The culture medium was replaced with medium containing the drug panel 24 h post-seeding, and the cells were incubated for 24, 48 and 72 h. […] In differentiated Caco-2 and fibroblasts, culture medium containing metal gold complexes was added 15 days post-seeding, and the cells were incubated for 72 h. The antiproliferative effect was measured using an MTT assay, as previously described by Mármol et al.. The absorbance at 540/620 nm was measured using a SPECTROstar Nano (BMG Labtech, Ortenberg, Germany). In order to determine the selectivity index (SI), the IC50 value of the differentiated Caco-2 cells was divided by IC50 value in undifferentiated Caco-2, obtaining the ratio of the normal/cancerous cells’ toxicity.

[3] = test system: Caco-2 cells; assay: Apoptosis measurement, annexin V-FITC/PI flow cytometry; format: cell-based, human; conditions: complex 1 1.14 µM 48 h, complex 8 7.22 µM 72 h
Procedure: Caco-2 cells were seeded in 75 cm^2 flasks at a density of 1 × 10^4 cells/cm^2, then exposed to the drug panel for 48 or 72 h depending on the compound tested, and them stained with annexin V-FITC and sodium iodide propidio according to the manufacturer’s instructions. The cells were then transferred to flow cytometry tubes and washed twice with phosphate-buffered saline (PBS); they were then resuspended in 100 µL annexing V binding buffer (100 mM Hepes/NaOH pH 7.4, […], 2.5 mM CaCl2). In total, 5 µL annexin V-FITC and 5 µL propidium iodide (PI) were added to the tube. After 15 min of incubation at room temperature protected from light, 400 µL annexin binding buffer was added to each sample, and the signal intensity was analyzed within 1 h with Beckman Coulter Gallios (Brea, CA, USA). The data were analyzed with BD FACSDivaTM [59].

[4] = test system: Human epithelial fibroblast cells (NHDF-Ad); assay: MTT viability assay in human epithelial fibroblasts; format: cell-based; conditions: complexes at their IC50 (1 1.14 μM, 3 1.7 μM, 8 7.22 μM, 9 8.56 μM), 72 h
Procedure: as §2, §3, §4

[5] = test system: Caco-2 cells; assay: Propidium iodide DNA staining and cell cycle analysis; format: cell-based, human; conditions: complex 1 1.14 µM 48 h, complex 8 7.22 µM 72 h
Procedure: Once the cells were seeded in 25 cm^2 flasks at a density of 1 × 10^4 cells/cm^2, they were exposed, after 24 post-sendings, to the drug panel for 48 or 72 h. The cells were fixed according to the previously described methods before being stained with 50 μg/mL PI solution. The signal intensity was analysed with a Beckman Coulter Gallios (Brea, CA, USA) equipped with a blue solid diode laser (488 nm) and a red solid diode laser (635 nm), collecting fluorescence with a 620 nm-long pass filter.

[6] = test system: caspase-3; assay: Determination of active caspase 3 by flow cytometry; format: cell-based, human; conditions: Caco-2; complex 1 1.14 µM 48 h, complex 8 7.22 µM 72 h
Procedure: as §1

[7] = test system: Caco-2 cells; assay: Mitochondrial membrane potential assay (DilC1); format: cell-based, human; conditions: complex 1 1.14 µM 48 h, complex 8 7.22 µM 72 h
Procedure: Caco-2 cells were seeded in 75 cm^2 flasks at a density of 1 × 10^4 cells/cm^2, and the 24-h post-seeding medium was replaced with medium containing the drug panel; it was then incubated for 48 or 72 h. The cells were then washed twice and resuspended in PBS at a concentration of 10^6 cells/mL before incubation with 5 µL of 10 µM 1,1′,3,3,3′-hexamethylindodicarbo-cyanine iodide (DilC1). After 15 min of incubation at 37 °C, 400 µL PBS was added, and the fluorescence was measured by flow cytometry at an excitation wavelength of 633 nm and an emission of 658 nm with a Beckman Coulter Gallios (Brea, CA, USA) equipped with a blue solid diode laser (488 nm) and a red solid diode laser (635 nm).

[8] = n-octanol-water distribution coefficient, shake-flask method; format: physicochemical; conditions: n-octanol/buffered saline pH 7.4, shake-flask
Procedure: The n-octanol−water coefficients of the complexes were determined using a shake-flask method, as reported previously. Briefly, 100 mL buffered-saline (0.15 M NaCl, 10 mM phosphate [PO4^3−] buffer, pH 7.4) and 100 mL n-octanol were shaken for 72 h. The addition of 1 mg of the complexes followed by the centrifugation and separation of both phases gave two solutions, which were analysed by UV absorbance spectroscopy to determine their concentration in each phase. The corresponding value of log P was defined as log{[compound(organic)]/[compound(aqueous)]}.

Compound | cells with active p53 [1] | decrease of cell viability [2] | IC50 [2] [µM] | induction of apoptosis (annexin V/PI) [3] | decrease of cell viability [4] | cell cycle distribution [5] | percentage of cells with active caspase-3 [6] | mitochondrial depolarization (cells with disturbed MMP) [7] | Log P7.4 [8]
O=S(=O)(NC(=S)[S][Au][PH](c1ccccc1)(c1ccccc1)c1ccccc1)c1ccccc1 [Complex 1, [Au(S2CNHSO2C6H5)(PPh3)]] | significant increase in cells with active p53 | did not compromise the viability | 12.7 ± 0.47 | capable of inducing apoptosis | did not compromise the viability | significantly increased the number of cells arrested in the G1 phase | increased the percentage of cells with active caspase-3 | induced similar mitochondrial depolarization | 0.75
[Au(S2CNHSO2-p-Me-C6H4)(IMePropargyl)] [Complex 8] | significant increase in cells with active p53 | did not compromise the viability | 46.6 ± 3.26 | capable of inducing apoptosis | did not compromise the viability | significantly increased the number of cells arrested in the G1 phase | increased the percentage of cells with active caspase-3 | induced similar mitochondrial depolarization | −0.13
